Read-outs that look alike come from different tables or passages of the source.

One data set concerns MCF7. The data set can be described thus: Cytotoxicity on MCF7 monolayers (MTT assay). Particulars: Homo sapiens, MCF7, 72 h, read-out: Mean of % cytotoxicity ± SD. Background: Tetrazolium dyes change colour on reduction, which living cells bring about.
In a further data set the test system is MCF7 3D spheroids. Put plainly: Cytotoxicity on MCF7 3D multicellular spheroids (acid phosphatase method). The note with it: for cytotoxicity at 50 µM: MCF7, 120 h, read-out: Mean of % cytotoxicity ± S.D.
The subject of another data set is hTERT-RPE1 3D spheroids. Put plainly: Cytotoxicity on normal RPE1 3D spheroids (acid phosphatase method). Format: cell-based, human. Particulars: 120 h. As to the method: These cell lines were generously provided by Prof. Stig Linder, Karolinska Institute (Sweden).
Cytotoxicity was calculated according to the following equation: […]

A further data set has as its system MCF7 breast cancer cells. The data set can be described thus: Gene expression profiling by real-time PCR (p53, Bax, Bcl-2, IL-6, TNF-alpha, MMP1). Particulars: MCF7, IC50 concentration, 24 h, qRT-PCR. The data set is classed as cell-based, human. As to the method: Total RNA was extracted from both control and treated cells using the RNeasy kit. Up to one million cells were subjected to disruption in Buffer RLT, homogenization, and ethanol treatment to promote selective binding of RNA to the RNeasy membrane. High-purity RNA was subsequently eluted using RNase-free water. All binding, washing, and elution steps were performed using centrifugation in a micro-centrifuge. The sample was then applied to an RNeasy Mini spin column, enabling total RNA retention on the membrane while contaminants were efficiently eliminated. The RNA was then used as a template for real-time PCR to quantify the mRNA levels of genes. Two sets of primers were used—one for the IL-6, TNF-alpha, MMP1, p53, Bcl-2, and Bax genes and another for the endogenous control gene, β-actin (Table 6). The real-time PCR reaction was carried out with the following cycling conditions: 50 °C for 45 min (cDNA synthesis), followed by 40 cycles of 95 °C for 10 s and 60 °C for 60 s. A negative control was included to ensure primer specificity and rule out contamination. Finally, the statistical analysis of the expression of the genes was performed using one-way ANOVA followed by the Tukey–Kramer post-test.

The next data set has as its system MCF7 cell line. Put plainly: Pro-apoptotic activity, M30 Cytodeath ELISA (CK18-Asp396). The data set is classed as cell-based, human. The note with it: MCF7 monolayers, 50 µM, 24 h. As to the method:
The pro-apoptotic activity is measured as fold increase of the spontaneous apoptosis occurred in the DMSO treated negative control ± standard deviation.
The cutoff was determined as fourfold increase in the apoptosis signal of the negative control.
The accumulation of CK18-Asp396 in treated MCF7 cell cultures was quantified using the M-30 Cytodeath® ELISA kit according to the manufacturer’s instructions. Briefly, the MCF7 cell line monolayers were exposed to the chemical compounds at a concentration of 50 µM. Following 24 h of incubation, the culture medium was supplemented with 0.1% NP40. Subsequently, aliquots of 25 µL from each well, containing CK18 released into the medium from attached and floating cells and cell fragments, were subjected to the ELISA assay. Cleaved CK18 levels were determined by measuring the absorbance at 450 nm[46].
A general note: ELISA stands for enzyme-linked immunosorbent assay.

Where [1] appears, read: Homo sapiens, MCF7, read-out: IC50 (µM) for MCF7 ± SD, MCF7 3D spheroids.
Where [2] appears, read: read-out: IC50 (µM) for MCF7 ± SD, MCF7 3D spheroids.

Description for MCF7 3D spheroids: Eighty pre-plated synthetic chemical compounds were screened on two human cell lines: MCF7 (ATCC® HTB-22™), a Caucasian breast adenocarcinoma model, and hTERT-RPE-1 (ATCC® CRL-4000™), a normal retinal epithelial cell line immortalized by hTERT telomerase. […] The cells were cultured in DMEM-F12 medium supplemented with L-glutamine and 10% fetal bovine serum, all were purchase from Biowest (Biotechnology company in Nuaillé, France), and maintained in a controlled incubator environment set at 37 °C with 5% CO2 and 95% humidity.
3-D spheroid models were generated from MCF7 cancer and hTERT-RPE1 normal cells were seeded at 10,000 and 50,000 cells/well, respectively, in poly-HEMA coated round bottom plates according to the protocol previously mentioned[44]. The cells were incubated for 5 days to generate the spheroids with diameter of 500 ± 20 µm. The spheroids were imaged using Olympus S100, U-CMAD3 camera connected to Olympus inverted microscope and the diameter of the spheroids was measured using Cellscen-Entry software. Test compounds were added in triplicate to a final concentration of 50 µM and were incubated for 120 h. […] At the end of incubation, cytotoxicity was determined using the acid phosphatase method[45]. After washing twice with 250 μL PBS buffer, 100 μL of 0.1 M sodium citrate, 0.1% Triton X-100, p-nitrophenylphosphate (2 mg/ml) (Pierce Biotechnology Inc., Rockford, IL) was added to each well and incubated for 1.5 h at 37 °C. After incubation, 10 μL of 1N NaOH stop solution was added to each well, and absorbance was read at 405 nm. Cytotoxicity was calculated according to the following equation:

One may read the IC50 as the concentration needed to halve the response being measured. Consider `COc1ccc(OCCC(=O)NNC(=S)Nc2cc(Cl)ccc2Cl)cc1` [F06, N1-(2,5-dichlorophenyl)-2-[3-(4-methoxyphenoxy)propanoyl]hydrazine-1-carbothioamide], for which the figures for the cytotoxicity at 50 µM with MCF7 and with MCF7 3D spheroids (Homo sapiens) were 80.1 ± 1.7% and 88 ± 2.5%, respectively. The IC50 is below 26 µM in the data set on MCF7 3D spheroids (setting [1]) and 24.8 ± 0.6 µM in the data set with MCF7 3D spheroids (setting [2]). In the data set with hTERT-RPE1 3D spheroids, the “Cytotoxic effect% ± SD RPE1(50µM)” value is recorded as 18.4 ± 0.5%. Further, in the data set on MCF7 breast cancer cells, the “Expression of apoptosis-related genes (Bax, P53, Bcl-2)” value (shortened to “Expression of apoptosis-related genes”) is “greater ability to downregulate Bcl-2 while upregulating both P53 and Bax expression compared to the other compounds”.

With `O=C(NCCc1c[nH]c2ccccc12)Nc1ccc(Cl)cc1` [D08, N-(4-chlorophenyl)-N'-[2-(1H-indol-3-yl)ethyl]urea], the figures for the cytotoxicity at 50 µM with MCF7 and in the data set with MCF7 3D spheroids (Homo sapiens) were 97.7 ± 0.47% and 74 ± 2.9%, respectively. Moreover, the “Fold increase (apoptosis signal vs DMSO negative control)” value (shortened to “Fold increase”) in the data set on MCF7 cell line was 2.14 fold. Further, the IC50 in the data set with MCF7 3D spheroids (setting [1]) turned out to be 36.9 ± 0.6 µM. Also, the “Cytotoxic effect% ± SD RPE1(50µM)” value in the data set with hTERT-RPE1 3D spheroids is 39.4 ± 1%.

On to `CCOC(=O)c1c(NS(=O)(=O)c2cccc3nsnc23)sc(C)c1C` [F03, ethyl 2-[(2,1,3-benzothiadiazol-4-ylsulfonyl)amino]-4,5-dimethylthiophene-3-carboxylate], for which the cytotoxicity at 50 µM stood at 70 ± 4% with MCF7 and 91.5 ± 0.5% in the data set on MCF7 3D spheroids (Homo sapiens). Also, the IC50 in the data set on MCF7 3D spheroids (setting [1]) is below 26 µM; in the data set on MCF7 3D spheroids (setting [2]), 18.8 ± 1.3 µM. Besides, the “Cytotoxic effect% ± SD RPE1(50µM)” value in the data set on hTERT-RPE1 3D spheroids is on record as 34.4 ± 2.3%. The “Expression of apoptosis-related genes” value in the data set with MCF7 breast cancer cells was “moderate pro-apoptotic effect compared to the positive control”.

`Cc1cccc(C)c1NC(=O)COC(=S)c1sc2ccccc2c1Cl` [A07, 2-(2,6-dimethylanilino)-2-oxoethyl 3-chlorobenzo[b] thiophene-2-carbothioate]: the cytotoxicity at 50 µM stood at 36.5 ± 1.2% in the data set with MCF7 and 75.1 ± 0.53% in the data set on MCF7 3D spheroids (Homo sapiens). The “Fold increase” value in the data set with MCF7 cell line is 3.64 fold. Also, in the data set with MCF7 3D spheroids (setting [1]), the 50% inhibitory concentration (IC50) was found to be 31.7 ± 1.2 µM.

For the compound `COC(=O)c1cc(C=C(C#N)C#N)c(OC)cc1OC` [H09, methyl 5-(2,2-dicyanovinyl)-2,4-dimethoxybenzoate], the cytotoxicity at 50 µM with MCF7 was found to be 86.2 ± 1.7%; with MCF7 3D spheroids (Homo sapiens), 80.8 ± 0.77%. In the data set with MCF7 cell line, the “Fold increase” value is 2.56 fold. The IC50 with MCF7 3D spheroids (setting [1]) worked out at 41.2 ± 0.83 µM. Also, the “Cytotoxic effect% ± SD RPE1(50µM)” value in the data set with hTERT-RPE1 3D spheroids turned out to be 41.2 ± 1.6%.

Consider `Nc1ccccc1SCC=CCSc1ccccc1N` [C02, 2-({4-[(2-aminophenyl)thio]but-2-enyl}thio)aniline], for which the cytotoxicity at 50 µM in the data set on MCF7 stood at 100 ± 0.003%; in the data set on MCF7 3D spheroids (Homo sapiens) it was 87.3 ± 4.5%. The IC50 is below 26 µM in the data set on MCF7 3D spheroids (setting [1]) and 25.3 ± 1.2 µM with MCF7 3D spheroids (setting [2]). Also, in the data set on hTERT-RPE1 3D spheroids, the “Cytotoxic effect% ± SD RPE1(50µM)” value amounted to 18.3 ± 0.4%. For the same compound, in the data set on MCF7 breast cancer cells, the “Expression of apoptosis-related genes” value is reported as “moderate pro-apoptotic effect compared to the positive control”.

`N.N.[Cl][Pt][Cl]` [cisplatin, reference compound]: the IC50 with MCF7 3D spheroids (setting [2]) worked out at 31.7 ± 1.5 µM. Besides, in the data set with MCF7 breast cancer cells, the “Expression of inflammatory markers (IL-6, TNFα, MMP1)” value is reported as “milder pro-inflammatory effects compared to the tested three compounds”.

Values taken from paper PMC12663132, “Assessment of cytotoxicity of some synthetic compounds against breast carcinoma spheroids with subsequent analysis of pro-apoptotic and gene expression” (Scientific Reports, 2025).
